Broadly, the MIC is the lowest concentration found to suppress growth. Higher therefore signals weaker potency.

Among the data in DBAASP are MIC values, retold here.

Structures are written as SMILES. Converted amounts (≈) assume the structure as drawn.

Test systems include Klebsiella pneumoniae; Pseudomonas aeruginosa; Acinetobacter baumannii; Candida krusei CBS 573; Penicillium expansum; Aspergillus niger.
Test in all cases: ≥ marks a high value that may be exact or a test limit, other limits are often not marked, values filed in µg/mL are converted to µM
For experiment [1], the system named is Cryptococcus neoformans ATCC 208821.
For experiment [2], the system named is Klebsiella pneumoniae ATCC 700603.
Experiment [3] has as its system Escherichia coli ATCC 25922.
Experiment [4] has as its system Staphylococcus aureus ATCC 43300.
The subject of experiment [5] is Pseudomonas aeruginosa ATCC 27853.
Experiment [6] deals with Klebsiella pneumoniae ATCC BAA-2146.
Experiment [7] deals with Bacillus subtilis ATCC 6051.
The subject of experiment [8] is Acinetobacter baumannii ATCC 19606.
For experiment [9], the system named is Klebsiella pneumoniae ATCC 13883.
Experiment [10] has as its system Candida albicans ATCC 90028.
Experiment [11] deals with Candida albicans ATCC 10231.
Experiment [12] has as its system Saccharomyces cerevisiae SZMC 0644.
In experiment [13] the test system is Candida parapsilosis CBS 604.

As for `CC[C@H](C)[C@@H]1NC(=O)CNC(=O)[C@H](CCCN=C(N)N)NC(=O)[C@H](Cc2ccc(O)cc2)NC(=O)[C@H](CO)NC(=O)[C@H](C(C)C)NC(=O)[C@H](CCCN=C(N)N)NC(=O)[C@H](Cc2ccccc2)NC(=O)[C@@H](NC(=O)[C@H](Cc2c[nH]c3ccccc23)NC(=O)[C@@H](N)CCCCN)CSSC[C@@H](C(=O)N[C@@H](CCCN=C(N)N)C(=O)O)NC(=O)[C@H](CCCN=C(N)N)NC(=O)[C@H](CCCN=C(N)N)NC(=O)[C@H](Cc2ccc(O)cc2)NC(=O)[C@H](C)NC1=O` [KWCFRVSYRGIAYRRCR], the MIC is 0.225 µM (≈ 0.5 µg/mL) in experiment [1]; 7.21 µM (≈ 16 µg/mL) against Klebsiella pneumoniae; 7.21 µM (≈ 16 µg/mL) in experiment [2]; 7.21 µM (≈ 16 µg/mL) against Pseudomonas aeruginosa; 0.45 µM (≈ 0.999 µg/mL) in experiment [3]; 7.21 µM (≈ 16 µg/mL) in experiment [4]. In addition, the MIC in [5] turned out to be 3.6 µM (≈ 7.99 µg/mL); in [6], 3.6 µM (≈ 7.99 µg/mL); in experiment [7] it was 0.0563 µM (≈ 0.125 µg/mL); in the experiment with Acinetobacter baumannii it was 0.45 µM (≈ 0.999 µg/mL); in experiment [8], 0.225 µM (≈ 0.5 µg/mL); in experiment [9], 1.8 µM (≈ 4 µg/mL). The MIC in experiment [10] came to 0.901 µM (≈ 2 µg/mL).
As for `CC[C@H](C)[C@@H]1NC(=O)CNC(=O)[C@H](CCCN=C(N)N)NC(=O)[C@H](Cc2ccc(O)cc2)NC(=O)[C@@H]2CSSC[C@H](NC1=O)C(=O)N[C@@H](Cc1ccc(O)cc1)C(=O)N[C@@H](CCCN=C(N)N)C(=O)N[C@@H](CCCN=C(N)N)C(=O)N[C@H](C(=O)N[C@@H](C)C(=O)O)CSSC[C@H](NC(=O)[C@H](Cc1c[nH]c3ccccc13)NC(=O)[C@@H](N)CCCCN)C(=O)N[C@@H](Cc1ccccc1)C(=O)N[C@@H](CCCN=C(N)N)C(=O)N[C@@H](C(C)C)C(=O)N2` [KWCFRVCYRGICYRRCA], the minimal inhibitory concentration (MIC) was determined as 0.115 µM (≈ 0.25 µg/mL) in experiment [1]; 1.83 µM (≈ 3.99 µg/mL) against Klebsiella pneumoniae; 0.115 µM (≈ 0.25 µg/mL) in experiment [2]; 0.229 µM (≈ 0.499 µg/mL) in the experiment with Pseudomonas aeruginosa; 0.0069 µM (≈ 0.015 µg/mL) in [3]; 0.229 µM (≈ 0.499 µg/mL) in experiment [4]. The MIC in experiment [5] was 0.115 µM (≈ 0.25 µg/mL); in experiment [6], 0.115 µM (≈ 0.25 µg/mL); in experiment [7], 0.0069 µM (≈ 0.015 µg/mL); against Acinetobacter baumannii, 0.0572 µM (≈ 0.125 µg/mL); in [8], 0.0572 µM (≈ 0.125 µg/mL); in experiment [9], 0.0572 µM (≈ 0.125 µg/mL). This compound displayed an MIC in experiment [10] of 1.83 µM (≈ 3.99 µg/mL).
In the case of `CC[C@H](C)[C@H](NC(=O)[C@@H]1CSSC[C@H](NC(=O)[C@H](CCCCN)NC(=O)CNC(=O)[C@H](CO)NC(=O)[C@@H](NC(=O)[C@@H](NC(=O)[C@H](CCCCN)NC(=O)[C@H](CO)NC(=O)[C@H](CCCCN)NC(=O)[C@H](CC(=O)O)NC(=O)[C@H](CO)NC(=O)[C@@H]2CCCN2C(=O)CNC(=O)[C@H](CO)NC(=O)[C@H](Cc2cnc[nH]2)NC(=O)[C@H](Cc2ccc(O)cc2)NC(=O)[C@@H](N)CCCCN)C(C)C)[C@@H](C)CC)C(=O)N[C@@H](CCC(=O)O)C(=O)N[C@@H](Cc2c[nH]c3ccccc23)C(=O)N[C@@H](CCC(N)=O)C(=O)NCC(=O)NCC(=O)N[C@@H](CCC(N)=O)C(=O)N[C@@H](CC(C)C)C(=O)N[C@@H](CC(N)=O)C(=O)N1)C(=O)N[C@@H](C)C(=O)N[C@H](C(=O)O)[C@@H](C)O` [KYHSGPSDKSKVISGKCEWQGGQLNCIAT], the MIC was above 32 µM in experiment [11], at least 32 µM in the experiment with Candida krusei CBS 573, at least 32 µM in experiment [12] and at least 32 µM in [13].
As for `CC(C)C[C@H](NC(=O)[C@H](Cc1ccccc1)NC(=O)[C@H](CCCN=C(N)N)NC(=O)[C@H](CCCN=C(N)N)NC(=O)[C@H](C)NC(=O)[C@H](Cc1c[nH]c2ccccc12)NC(=O)[C@H](Cc1c[nH]c2ccccc12)NC(=O)[C@H](C)NC(=O)[C@H](CCCN=C(N)N)NC(=O)[C@H](Cc1ccccc1)NC(=O)[C@H](Cc1ccccc1)NC(=O)[C@H](CCCCN)NC(=O)[C@@H](N)CCCCN)C(=O)N[C@@H](CCCCN)C(N)=O` [KKFFRAWWARRFLK], the MIC with Penicillium expansum and against Aspergillus niger was 6.44 µM (≈ 12.5 µg/mL) throughout.
